Columns and labels:
Pilz-tyrosinase = assay: Tyrosinase assay (inhibition of the enzyme tyrosinase, L-DOPA substrate, optical density at 450 nm); assay type: biochemical; conditions: Tyrosinase 10 U, L-DOPA 4 mM, 1 h 37°C
Method: Die Wirkung der Verbindungen nach Formeln Ia bis IIp als Hautaufheller wird geprüft durch ihre Fähigkeit das Enzym Tyrosinase zu hemmen und damit die Melanin-Synthese zu unterbinden. Um die hemmende Wirkung der Verbindungen der Formeln Ia bis IIp gegenüber Tyrosinase zu zeigen wurden als Substrate Pilz-tyrosinase und L-Tyrosin oder L-DOPA verwendet und mit der Referenz-Verbindung verglichen.
Die Verbindungen Ia bis IIp und Tyrosinase (10 U) werden 10 Min. in Eis vorgekühlt und L-DOPA (4 mM) zugefügt und für 1 h auf 37°C gehalten. Es wird die optische Dichte jedes experimentell ermittelten Punktes bei 450 nm gegenüber der entsprechenden Referenz ohne Enzym gemessen. Kojicsäure wird als Tyrosinase-Referenz-Inhibitor benutzt. Die Versuchsergebnisse sind in der folgenden Tabelle 1 dargestellt, ausgedrückt durch den IC 50-Wert (d.h. die Konzentration der jeweiligen Versuchssubstanz bei der die Tyrosinase-Aktivität um 50% blockiert ist). Tab. 1 Tyrosinase-Versuchsergebnisse

[1] = test system: normale menschliche Melanocyten; assay: Melanin assay (melanin content of human melanocyte cultures, optical density at 405 nm); assay type: cell-based; conditions: 240 h incubation; for % Kontrolle normiert*: melanin content normalised; for % Kontrolle: melanin content
Excerpt: Das Potential der Verbindungen nach Formeln Ia bis IIp als Hautaufheller-Wirkstoff wurde außerdem durch den Melanin-Versuch verifiziert. Der Effekt in Bezug auf den Melanin-Gehalt von menschlichen epidermalen Melanocyten-Kulturen dieser Verbindungen wurde ermittelt und mit der Referenzverbindung (Kojicsäure) verglichen.
Eine vorausgehende Cytotoxizitäts-Studie der Verbindungen nach Formeln Ia bis IIp wurde durchgeführt um drei nicht-cytotoxische Konzentrationen für den Melanin-Versuch zu ermitteln.
Melanin-Versuch: normale menschliche Melanocyten wurden in 24 Lochplatten (110.000 Zellen/Loch) kultiviert. Bei 50 % Zusammenfluss wurde das Kulturmedium mit oder ohne (Kontrollverbindung) Verbindungen der Formeln Ia bis IIp durch frisches Kulturmedium in drei verschiedenen Konzentrationen ersetzt.
Nach der Inkubation (240 Stunden) wurden die Monolayers gewaschen, die Zellen lysiert und das Melanin extrahiert. Es wurde die optische Dichte jedes experimentellen Punktes bei 405 nm gegen den Melanin-Standard gemessen. Tabelle 2 zeigt die Ergebnisse zwei ausgewählter Verbindungen im Vergleich zur Kojicsäure und der Kontrollverbindung (mit 100% Melaningehalt), wobei der ermittelte Melaningehalt (in %) bei jeweils drei verschiedenen Konzentrationen angegeben ist. Tab. 2 Melanin-Versuchsergebnisse

Which IC50 (Pilz-tyrosinase) does the source give for `c1ccc(CN2CCN(Cc3ccccn3)CC2)cc1` [IIk, 1-Benzyl-4-pyridin-2-ylmethyl-piperazin] here?
The IC50 was over 1000 µM.

Which IC50 (Pilz-tyrosinase) does the source give for `c1cc(CN2CCNCC2)ccn1` [IIn, 1-Pydridin-4-ylmethyl-piperazin] here?
The IC50 was 280 µM.

For `c1cncc(CN2CCNCC2)c1` [IIo, 1-Pyridin-3-ylmethyl-piperazin], which IC50 (Pilz-tyrosinase) is on record?
Its IC50 is 360 µM.

With `c1ccc(CN2CCNCC2)nc1` [IIp, 1-Pyridin-2-ylmethyl-piperazin] as the molecule, how does the IC50 (Pilz-tyrosinase) read?
Its IC50 is 553 µM.

With `Oc1cccc(CN2CCN(Cc3ccccc3)CC2)c1O` [Ia, 3-(4-Benzyl-piperazin-1-ylmethyl)-benzen-1,2-diol] as the molecule, how does the IC50 (Pilz-tyrosinase) read?
Its IC50 is 134 µM.

What about the Melanin ([1]; Konzent. 0.8 µg/mL) of the same molecule?
Its Melanin is 38.6 µg/mL.

And the “Melanin normiert*” value ([1]; Konzent. 0.8 µg/mL)?
The value was 36.4 µglmL.

What about the “% Kontrolle normiert*” value ([1]; Konzent. 0.8 µg/mL) of the same molecule?
The value was 98%.

What about the “% Kontrolle” value ([1]; Konzent. 0.8 µg/mL) of the same molecule?
The value was 104%.

Which results are given for `Oc1ccc(CN2CCN(Cc3ccccc3)CC2)c(O)c1` [Ib, 4-(4-Benzyl-piperazin-1-ylmethyl)-benzen-1,3-diol]?
IC50 (Pilz-tyrosinase): 154 µM; Melanin ([1]; Konzent. 0.8 µg/mL): 37.8 µg/mL; Melanin normiert* ([1]; Konzent. 0.8 µg/mL): 37.1 µglmL; Melanin ([1]; Konzent. 4 µg/mL): 37.1 µg/mL; Melanin normiert* ([1]; Konzent. 4 µg/mL): 34.8 µglmL; % Kontrolle normiert* ([1]; Konzent. 0.8 µg/mL): 100%; % Kontrolle normiert* ([1]; Konzent. 4 µg/mL): 94%; % Kontrolle ([1]; Konzent. 0.8 µg/mL): 102%; % Kontrolle ([1]; Konzent. 4 µg/mL): 100%

How did the IC50 (Pilz-tyrosinase) turn out when `Oc1cc(O)cc(CN2CCN(Cc3ccccc3)CC2)c1` [Id, 5-(4-Benzyl-piperazin-1-ylmethyl)-benzen-1,3-diol] was run?
The IC50 was over 1000 µM.

For `CCN1CCN(Cc2ccc(O)cc2O)CC1` [Ie, 4-(4-Ethyl-piperazin-1-ylmethyl)-benzen-1,3-diol], which IC50 (Pilz-tyrosinase) is on record?
The IC50 was 263 µM.

And the Melanin ([1]; Konzent. 0.8 µg/mL)?
The Melanin was 37.3 µg/mL.

And the “Melanin normiert*” value ([1]; Konzent. 0.8 µg/mL)?
Its value is 36.5 µglmL.

What about the Melanin ([1]; Konzent. 4 µg/mL) of the same molecule?
The Melanin was 37.5 µg/mL.

And the “Melanin normiert*” value ([1]; Konzent. 4 µg/mL)?
The value was 36.0 µglmL.

What about the Melanin ([1]; Konzent. 20 µg/mL) of the same molecule?
Its Melanin is 33.8 µg/mL.

And the “Melanin normiert*” value ([1]; Konzent. 20 µg/mL)?
Its value is 32.9 µglmL.

What about the “% Kontrolle normiert*” value ([1]; Konzent. 0.8 µg/mL) of the same molecule?
The value was 98%.

What about the “% Kontrolle normiert*” value ([1]; Konzent. 4 µg/mL) of the same molecule?
Its value is 97%.

And the “% Kontrolle normiert*” value ([1]; Konzent. 20 µg/mL)?
The value was 88%.

And the “% Kontrolle” value ([1]; Konzent. 0.8 µg/mL)?
Its value is 100%.

What about the “% Kontrolle” value ([1]; Konzent. 4 µg/mL) of the same molecule?
The value was 101%.

And the “% Kontrolle” value ([1]; Konzent. 20 µg/mL)?
The value was 91%.

For `CC(C)(C)OC(=O)N1CCN(Cc2ccc(O)cc2O)CC1` [If, 4-(4-tert-Butoxycarbinyl-piperazin-1-ylmethyl)-benzen-1,3-diol], which IC50 (Pilz-tyrosinase) is on record?
Its IC50 is 140 µM.

For `Oc1ccc(CN2CCOCC2)c(O)c1` [Ih, 4-Morpholin-1-ylmethyl-benzen-1,3-diol], which IC50 (Pilz-tyrosinase) is on record?
The IC50 was 78 µM.

And the Melanin ([1]; Konzent. 1.6 µg/mL)?
Its Melanin is 37.2 µg/mL.

And the “Melanin normiert*” value ([1]; Konzent. 1.6 µg/mL)?
The value was 37.0 µglmL.

And the Melanin ([1]; Konzent. 8 µg/mL)?
The Melanin was 35.3 µg/mL.

And the “Melanin normiert*” value ([1]; Konzent. 8 µg/mL)?
The value was 32.1 µglmL.

What about the Melanin ([1]; Konzent. 40 µg/mL) of the same molecule?
Its Melanin is 30.6 µg/mL.

And the “Melanin normiert*” value ([1]; Konzent. 40 µg/mL)?
The value was 30.4 µglmL.

What about the “% Kontrolle normiert*” value ([1]; Konzent. 1.6 µg/mL) of the same molecule?
Its value is 99%.

And the “% Kontrolle normiert*” value ([1]; Konzent. 8 µg/mL)?
The value was 86%.

What about the “% Kontrolle normiert*” value ([1]; Konzent. 40 µg/mL) of the same molecule?
Its value is 82%.

And the “% Kontrolle” value ([1]; Konzent. 1.6 µg/mL)?
Its value is 100%.

What about the “% Kontrolle” value ([1]; Konzent. 8 µg/mL) of the same molecule?
Its value is 95%.

And the “% Kontrolle” value ([1]; Konzent. 40 µg/mL)?
The value was 82%.

`COc1ccc(CN2CCN(Cc3ccccc3)CC2)c(OC)c1` [Ii, 1-Benzyl-4-(2,4-dimethoxy-benzyl)-piperazin] was tested. Which IC50 (Pilz-tyrosinase) did it give?
Its IC50 is over 1000 µM.

How did the IC50 (Pilz-tyrosinase) turn out when `c1ccc(CN2CCN(Cc3ccc4c(c3)OCO4)CC2)cc1` [Ij, 1-Benzo[1,3]dioxol-5-ylmethyl-4-benzyl-piperazin] was run?
The IC50 was 153 µM.

How did the IC50 (Pilz-tyrosinase) turn out when `O=c1cc(CO)occ1O` [Kojicsäure, reference compound] was run?
The IC50 was 12 µM.

What about the Melanin ([1]; Konzent. 6.8 µg/mL) of the same molecule?
Its Melanin is 34.4 µg/mL.

And the “Melanin normiert*” value ([1]; Konzent. 6.8 µg/mL)?
Its value is 38.0 µglmL.

What about the Melanin ([1]; Konzent. 15.6 µg/mL) of the same molecule?
Its Melanin is 30 µg/mL.

And the “Melanin normiert*” value ([1]; Konzent. 15.6 µg/mL)?
Its value is 34.6 µglmL.

And the Melanin ([1]; Konzent. 36 µg/mL)?
Its Melanin is 23.8 µg/mL.

And the “Melanin normiert*” value ([1]; Konzent. 36 µg/mL)?
Its value is 31.7 µglmL.

And the “% Kontrolle normiert*” value ([1]; Konzent. 6.8 µg/mL)?
The value was 101%.

And the “% Kontrolle normiert*” value ([1]; Konzent. 15.6 µg/mL)?
Its value is 92%.

And the “% Kontrolle normiert*” value ([1]; Konzent. 36 µg/mL)?
Its value is 85%.

What about the “% Kontrolle” value ([1]; Konzent. 6.8 µg/mL) of the same molecule?
The value was 92%.

What about the “% Kontrolle” value ([1]; Konzent. 15.6 µg/mL) of the same molecule?
The value was 80%.

What about the “% Kontrolle” value ([1]; Konzent. 36 µg/mL) of the same molecule?
The value was 64%.
